Test: In vitro tests of lamellar structure formation
Assay type: physicochemical
Conditions: RMT associated to palmitic acid

ricinoleyl monomaleate triglyceride [RMT]
structure formed: form a lamellar structure very similar to the lamellar gel structure that is naturally present in healthy skins

Source: US8999355B2, “Non-rinse off cosmetic composition and a cosmetic product comprising said composition” (Natura Cosmeticos S.A., priority 2005, dated 2015)
